# Measured values reported in US9302999B2, “Substituted triazoles as herbicides” (E. I. DU PONT DE NEMOURS AND COMPANY, priority 2012, dated 2016).
# Assays:
# Type in all cases: in vivo
# [1] = tested on: pigweed (Amaranthus retroflexus); test: Test F postemergence: pigweed; conditions: scale 0 to 100
# Source text: Seeds of plant species selected from corn (Zea mays), soybean (Glycine max), velvetleaf (Abutilon theophrasti), lambsquarters (Chenopodium album), poinsettia, wild (wild poinsettia, Euphorbia heterophylla), pigweed, palmer (palmer pigweed, Amaranthus palmeri), waterhemp (common waterhemp, Amaranthus rudis), surinam grass (Brachiaria decumbens), crabgrass, Brazil (Brazilian crabgrass, Digitaria horizontalis), panicum, fall (fall panicum Panicum dichotomiflorum), crabgrass, large (large crabgrass, Digitaria sanguinalis), foxtail, giant (giant foxtail, Setaria faberii), foxtail, green (green foxtail Setaria viridis), goosegrass (Eleusine indica), ragweed (common ragweed, Ambrosia elatior), barnyardgrass (Echinochloa crus-galli), sandbur (southern sandbur, Cenchrus echinatus), arrowleaf sida (Sida rhombifolia), ryegrass, Italian (Italian ryegrass, Lolium multiflorum), dayflower, VA (Virginia (VA) dayflower, Commelina virginica), field bindweed (Convolvulus arvensis), cocklebur (common cocklebur, Xanthium strumarium), morningglory (Ipomoea coccinea), nightshade (eastern black nightshade, Solanum ptycanthum), kochia (Kochia scoparia), nutsedge, yellow (yellow nutsedge, Cyperus esculentus), johnsongrass (Sorghum halepense), smartweed (ladysthumb smartweed, Polygonum persicaria), and beggarticks (hairy beggarticks, Bidens pilosa), were planted into a silt loam soil and treated preemergence with test chemicals formulated in a non-phytotoxic solvent mixture which included a surfactant. At the same time, plants selected from these crop and weed species and also pigweed (Amaranthus retroflexus), waterhemp_RES1 (ALS/Triazine resistant common waterhemp, Amaranthus rudis) and waterhemp_RES2 (ALS/HPPD resistant common waterhemp, Amaranthus rudis) were planted in pots containing a planting medium comprising spaghnum peat moss, vermiculite, wetting agent and starter nutrients treated with postemergence applications of some of the test chemicals formulated in the same manner. Plants ranged in height from 2 to 18 cm for postemergence treatments (1- to 4-leaf stage).
# Treated plants and controls were maintained in a greenhouse for 14 to 21 days, after which time all species were compared to controls and visually evaluated. Plant response ratings, summarized in Table E, are based on a scale of 0 to 100 where 0 is no effect and 100 is complete control. A dash (-) response means no test result.
# [2] = tested on: Waterhemp; test: Test C preemergence: waterhemp; conditions: scale 0 (no effect) to 100 (complete control)
# [3] = tested on: lambsquarters (Chenopodium album); test: Test E pre-/postemergence: lambsquarters; conditions: Preemergence, scale 0 to 100
# Outline: (§1)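 Visual injury scored 0–100 (0 no effect, 100 complete control) against controls after 14 to 21 days in greenhouse. Compounds formulated in surfactant-containing non-phytotoxic solvent, applied pre-emergence to seeded silt loam or post-emergence to 1- to 4-leaf plants in peat-based medium.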
# [4] = tested on: ryegrass, Italian (Italian ryegrass, Lolium multiflorum); test: Test E pre-/postemergence: ryegrass, Italian; conditions: Preemergence, scale 0 to 100
# Outline: as §1
# [5] = tested on: velvetleaf (Abutilon theophrasti); test: Test E pre-/postemergence: velvetleaf; conditions: Preemergence, scale 0 to 100
# Outline: as §1
# [6] = tested on: kochia (Kochia scoparia); test: Test E pre-/postemergence: kochia; conditions: Preemergence, scale 0 to 100
# Outline: as §1
# [7] = tested on: dayflower, (VA) (Virginia dayflower, Commelina virginica); test: Test E pre-/postemergence: dayflower, (VA); conditions: Preemergence, scale 0 to 100
# Outline: as §1
# [8] = tested on: pigweed, palmer (palmer pigweed, Amaranthus palmeri); test: Test E pre-/postemergence: pigweed, palmer; conditions: Preemergence, scale 0 to 100
# Outline: as §1
# [9] = tested on: foxtail, green (green foxtail, Setaria viridis); test: Test E pre-/postemergence: foxtail, green; conditions: Preemergence, scale 0 to 100
# Outline: as §1
# [10] = tested on: arrowleaf sida (Sida rhombifolia); test: Test E pre-/postemergence: arrowleaf sida; conditions: Preemergence, scale 0 to 100
# Outline: as §1
compound,measurement,setting,value
Cc1nn(-c2ccnc(Cl)c2)nc1Cc1ccnc(C(F)(F)F)c1 [Compound 141],"Plant response rating, Pigweed",[1]; 8 g ai/ha,90
same,"Plant response rating, Pigweed",[1]; 16 g ai/ha,95
same,"Plant response rating, Pigweed",[1]; 31 g ai/ha,95
same,"Plant response rating, Pigweed",[1]; 62 g ai/ha,95
same,"Plant response rating, Pigweed",[1]; 125 g ai/ha,95
CCOc1nn(-c2ccc(Cl)cc2)nc1Cc1ccnc(C(F)(F)F)c1 [Compound 188],"Plant response rating, Waterhemp",[2]; 31 g ai/ha,100
Cc1nn(-c2ccc(C(F)(F)F)cn2)nc1Oc1ccnc(C(F)(F)F)c1 [Compound 23],Plant response rating: Lambsquarters,[3]; 31 g ai/ha,0
same,Plant response rating: Lambsquarters,[3]; 62 g ai/ha,0
same,Plant response rating: Lambsquarters,[3]; 125 g ai/ha,98
same,Plant response rating: Lambsquarters,[3]; 250 g ai/ha,98
same,"Plant response rating: Ryegrass, Italian",[4]; 16 g ai/ha,0
same,"Plant response rating: Ryegrass, Italian",[4]; 31 g ai/ha,0
same,"Plant response rating: Ryegrass, Italian",[4]; 62 g ai/ha,0
same,"Plant response rating: Ryegrass, Italian",[4]; 125 g ai/ha,0
same,"Plant response rating: Ryegrass, Italian",[4]; 250 g ai/ha,10
same,Plant response rating: Velvetleaf,[5]; 16 g ai/ha,0
same,Plant response rating: Velvetleaf,[5]; 31 g ai/ha,0
same,Plant response rating: Velvetleaf,[5]; 62 g ai/ha,10
same,Plant response rating: Velvetleaf,[5]; 125 g ai/ha,65
same,Plant response rating: Velvetleaf,[5]; 250 g ai/ha,65
same,Plant response rating: Kochia,[6]; 16 g ai/ha,0
same,Plant response rating: Kochia,[6]; 31 g ai/ha,0
same,Plant response rating: Kochia,[6]; 62 g ai/ha,60
same,Plant response rating: Kochia,[6]; 125 g ai/ha,100
same,Plant response rating: Kochia,[6]; 250 g ai/ha,100
same,"Plant response rating: Dayflower, VA",[7]; 16 g ai/ha,0
same,"Plant response rating: Dayflower, VA",[7]; 31 g ai/ha,0
same,"Plant response rating: Dayflower, VA",[7]; 62 g ai/ha,0
same,"Plant response rating: Dayflower, VA",[7]; 125 g ai/ha,5
same,"Plant response rating: Dayflower, VA",[7]; 250 g ai/ha,5
same,"Plant response rating: Pigweed, Palmer",[8]; 16 g ai/ha,90
same,"Plant response rating: Pigweed, Palmer",[8]; 31 g ai/ha,90
same,"Plant response rating: Pigweed, Palmer",[8]; 62 g ai/ha,100
same,"Plant response rating: Pigweed, Palmer",[8]; 125 g ai/ha,100
same,"Plant response rating: Pigweed, Palmer",[8]; 250 g ai/ha,100
same,"Plant response rating: Foxtail, Green",[9]; 16 g ai/ha,0
same,"Plant response rating: Foxtail, Green",[9]; 31 g ai/ha,0
same,"Plant response rating: Foxtail, Green",[9]; 62 g ai/ha,5
same,"Plant response rating: Foxtail, Green",[9]; 125 g ai/ha,70
same,"Plant response rating: Foxtail, Green",[9]; 250 g ai/ha,95
same,Plant response rating: Arrowleaf Sida,[10]; 16 g ai/ha,0
same,Plant response rating: Arrowleaf Sida,[10]; 31 g ai/ha,0
same,Plant response rating: Arrowleaf Sida,[10]; 62 g ai/ha,0
same,Plant response rating: Arrowleaf Sida,[10]; 125 g ai/ha,0
same,Plant response rating: Arrowleaf Sida,[10]; 250 g ai/ha,35
FCc1nn(-c2ccc(F)cc2)nc1Oc1ccnc(C(F)(F)F)c1 [Compound 160],"Plant response rating, Waterhemp",[2]; 16 g ai/ha,100
"CCOc1nn(-c2ccc(F)cc2)nc1Cc1ccnc(C(F)(F)F)c1 [Compound 196, 4-[[5-ethoxy-2-(4-fluorophenyl)-2H-1,2,3-triazol-4-yl]methyl]-2-(trifluoromethyl)pyridine]","Plant response rating, Pigweed",[1]; 8 g ai/ha,85
same,"Plant response rating, Pigweed",[1]; 16 g ai/ha,95
same,"Plant response rating, Pigweed",[1]; 31 g ai/ha,95
same,"Plant response rating, Pigweed",[1]; 62 g ai/ha,95
same,"Plant response rating, Pigweed",[1]; 125 g ai/ha,95
